Measurements taken from the NIST ThermoML archive (doi:10.1016/j.jct.2009.01.010).
Several values for one entry are separate records, joined by “and”; a condition that tells them apart may be missing. Equal values may be shown once. ± gives the expanded uncertainty stated by the source.

Assays:
[1] = refractive index (Na D-line) (dimensionless); xn = mol fraction of the nth substance listed; conditions: 298.15 K, 101 kPa, Liquid, Abbe refractometer
[2] = xn = mol fraction of the nth substance listed; conditions: 298.15 K, 101 kPa, Liquid; for mass density: Pycnometric method; for speed of sound: Linear variable-path acoustic interferometer
[3] = refractive index (Na D-line) (dimensionless); conditions: 298.15 K; 101.33 kPa; Liquid; Abbe refractometer
[4] = 298.15 K, 101 kPa, Liquid; for mass density: Pycnometric method

O [water] + COCCO
x2 = 0
Conditions | mass density [kg/m3] | refractive index
[1] | – | 1.333 ± 0.001
[2] | 999.704 ± 0.91 | –

O [water]
Conditions | mass density [kg/m3] | refractive index
[3] | – | 1.333 ± 0.001 and 1.3325 ± 0.0007
[4] | 999.704 ± 0.91 | –

CCOCCOCCO [3,6-dioxa-1-octanol]
Conditions | mass density [kg/m3] | refractive index
[3] | – | 1.425 ± 0.001
[4] | 984.6 ± 7.1 | –

Conditions | speed of sound [m/s]
[4], Linear variable-path acoustic interferometer | 1378 ± 5.4

O [water] + COCCOCCO
x2 = 0
Conditions | mass density [kg/m3] | refractive index
[1] | – | 1.333 ± 0.001
[2] | 999.704 ± 0.91 | –

CCOCCO [2-ethoxyethan-1-ol] + O
Conditions | mass density, [2] [kg/m3] | refractive index, [1] | speed of sound, [2] [m/s]
x1 = 0.0092 | 996.93 ± 0.9 | 1.3389 ± 0.0003 | 1541.3 ± 2
x1 = 0.0177 | 997.02 ± 0.9 | 1.3415 ± 0.0003 | 1553.1 ± 2
x1 = 0.025 | 997.2 ± 0.9 | 1.3442 ± 0.0003 | 1575.6 ± 2
x1 = 0.0502 | 998.06 ± 0.91 | 1.3542 ± 0.0003 | 1626.9 ± 2.1
x1 = 0.0767 | 998.24 ± 0.92 | 1.3628 ± 0.0003 | 1649.6 ± 2.1
x1 = 0.1024 | 996.67 ± 0.93 | 1.3709 ± 0.0003 | 1646.5 ± 2.1
x1 = 0.183 | 988.37 ± 0.99 | 1.3854 ± 0.0004 | 1567.6 ± 2.2
x1 = 0.299 | 974.41 ± 1.2 | 1.394 ± 0.0004 | 1517.4 ± 2.5
x1 = 0.4058 | 963.11 ± 1.5 | 1.3979 ± 0.0005 | 1458.1 ± 2.8
x1 = 0.5059 | 954.22 ± 2 | 1.4012 ± 0.0006 | 1415.2 ± 3.2
x1 = 0.5996 | 947.01 ± 2.6 | 1.4025 ± 0.0007 | 1385.7 ± 3.6
x1 = 0.706 | 940.07 ± 3.4 | 1.4039 ± 0.0008 | 1359.6 ± 4
x1 = 0.8431 | 933.47 ± 4.6 | 1.4046 ± 0.0009 | 1330.4 ± 4.6
x1 = 0.8716 | 932.35 ± 4.9 | 1.4049 ± 0.0009 | 1325.6 ± 4.8
x1 = 1 | 925.39 ± 6.3 | 1.4058 ± 0.001 | 1302.5 ± 5.4

COCCOCCO [2-(2-methoxyethoxy)ethanol] + O
Conditions | mass density, [2] [kg/m3] | refractive index, [1] | speed of sound, [2] [m/s]
x1 = 0.013 | 1002.42 ± 0.91 | 1.341 ± 0.001 | 1546 ± 2
x1 = 0.026 | 1008.21 ± 0.91 | 1.349 ± 0.001 | 1582 ± 2
x1 = 0.051 | 1017.19 ± 0.93 | 1.36 ± 0.001 | 1640 ± 2.1
x1 = 0.064 | 1021.22 ± 0.94 | 1.366 ± 0.001 | 1646.7 ± 2.1
x1 = 0.074 | 1023.92 ± 0.94 | 1.37 ± 0.001 | 1662 ± 2.1
x1 = 0.101 | 1029.24 ± 0.96 | 1.378 ± 0.001 | 1674 ± 2.2
x1 = 0.15 | 1034.64 ± 1 | 1.39 ± 0.001 | 1674 ± 2.2
x1 = 0.187 | 1035.66 ± 1.1 | 1.396 ± 0.001 | 1660 ± 2.3
x1 = 0.305 | 1034.8 ± 1.3 | 1.408 ± 0.001 | 1606 ± 2.6
x1 = 0.401 | 1031.91 ± 1.7 | 1.412 ± 0.001 | 1562 ± 2.9
x1 = 0.506 | 1028.25 ± 2.3 | 1.415 ± 0.001 | 1514 ± 3.2
x1 = 0.646 | 1024.01 ± 3.4 | 1.418 ± 0.001 | 1474 ± 3.8
x1 = 0.766 | 1021.27 ± 4.5 | 1.419 ± 0.001 | 1454 ± 4.3
x1 = 0.895 | 1018.65 ± 6.1 | 1.422 ± 0.001 | 1442 ± 4.9
x1 = 1 | 1016.95 ± 7.5 | 1.425 ± 0.001 | 1422.6 ± 5.4
